Source: US20240100131A1, “NOVEL USE OF MPK38/MELK AS THERAPEUTIC AGENT FOR OBESITY OR METABOLIC DISEASES SPECIFIC TO MIDDLE-AGED MEN” (priority 2021, published 2024)
Where a SMILES comes first, the peptide text is derived from it. The star is where a group is joined. Cbz = O=C(OCc1ccccc1)*

How the values were obtained:
[1] = tested on: castrated MPK38−/− male mice; assay: Testosterone replacement in castrated male mice; format: in vivo, mouse
Method: A mixture of ketamine (34 mg/kg), xylazine (6.8 mg/kg) and acepromazine (1.1 mg/kg) was dissolved in saline, and the mice were anesthetized using this solution, and then surgery was performed. The surgical site was shaved and washed, and then sterilized with 70% alcohol. For castration, after abdomen midline incision, castration was performed such that the testes and attached fat pads were left intact. The testes were removed through an incision, but the testicular ducts and blood vessels supplying the testes were ligated with sterile silk suture and the testicular fat pads were put back, followed by closure with sterile silk suture. For sham castration, the testes with attached fat pads were exposed and put back without organ extirpation after abdominal incision, and the incision was closed with sterile silk suture. For ovariectomy, after midline abdominal incision, the uterus, oviducts, and ovaries with the fat pads were left intact. The ovaries were removed through an incision, but the oviduct and blood vessels supplying the ovaries were ligated with sterile silk suture and the ovarian fat pads were put back, followed by closure with sterile silk suture. […] After surgery, mice were monitored until they are fully recovered from anesthesia. […]

[2] = tested on: MPK38-Trx complex; assay: Endogenous MPK38-Trx complex formation in adipocytes; format: cell-based, mouse; conditions: both females and males
Method: (§1) In order to further determine whether or not testosterone increases the stability of MPK38, the effect of DHT on the formation of a complex of MPK38 with either ZPR9 or Trx was analyzed. The reason for this is that ZPR9 or Trx acts as a stabilizer or destabilizer of MPK38.

[3] = tested on: ASK1/TGF-β/p53 signaling; assay: MPK38-dependent ASK1/TGF-β/p53 signaling in adipocytes treated with DHT or E2; format: cell-based, mouse; conditions: vs control group not treated with DHT or E2; H2O2, TGF-β1 or 5FU stimulation
[4] = tested on: MPK38; assay: Immunoblot analysis of MPK38 stability and ubiquitination in adipocytes treated with DHT or E2; format: cell-based, mouse; conditions: for stability of MPK38: adipocytes of 4.5-month-old male and female mice, 10 nM, 24 hours, then cycloheximide 20 μg/ml; for endogenous ubiquitination of MPK38: adipocytes, regardless of gender
Method: In order to determine whether or not sex hormones such as testosterone and estrogen affect the kinase activity and expression of MPK38, immunoblot analysis was performed on adipocytes derived from 4.5-month-old normal male and female mice treated with DHT and E2.

[5] = tested on: MPK38-ZPR9 complex; assay: Endogenous MPK38-ZPR9 complex formation in adipocytes; format: cell-based, mouse; conditions: both females and males
Method: as §1

[6] = tested on: MPK38-Mdm2 complex; assay: Endogenous MPK38-Mdm2 complex formation (immunoprecipitation/immunoblot) in adipocytes; format: cell-based, mouse; conditions: vs control group not treated with DHT or E2
Method: Furthermore, since MPK38 physically interacts with Mdm2, whether or not DHT and E2 are involved in the decomposition of MPK38 mediated by Mdm2 was determined.

[7] = tested on: mouse hepatocytes; assay: Effects of DHT and E2 on lipid metabolism and MPK38 kinase activity in hepatocytes; format: cell-based; conditions: 10 nM each, compared with adipocytes

## C[C@]12CC[C@H]3[C@@H](CCC4=CC(=O)CC[C@@]43C)[C@@H]1CC[C@@H]2O [testosterone]
[1]; castrated male mice, T replacement (FIG. 14)
  effects of castration on metabolism after testosterone replacement: effects opposite to all of these results
[1]; middle-aged (7 months old) MPK38−/− male mice, testosterone pellets 25 μg/day
  glucose or lipid metabolism: did not affect

## C[C@]12CCC(=O)C[C@@H]1CC[C@@H]1[C@@H]2CC[C@]2(C)[C@@H](O)CC[C@@H]12 [DHT]
[2]
  formation of MPK38-Trx complex: decreased
[3]
  ASK1/TGF-β/p53 signaling: increased
[4]
  stability of MPK38: increased
  endogenous ubiquitination of MPK38: decreased
[5]
  formation of endogenous MPK38-ZPR9 complex: increased
[6]
  formation of endogenous MPK38-Mdm2 complex: decreased
[7]
  effects on lipid metabolism and MPK38 kinase activity in liver cells: similar

## CC(C)C[C@@H](C=O)NC(=O)[C@H](CC(C)C)NC(=O)[C@H](CC(C)C)NC(=O)OCc1ccccc1 [MG132] (Cbz-Leu-Leu-Leu-aldehyde)
[4]; 10 μM MG132, treated vs untreated group
  stability of MPK38 on exposure to proteasome inhibitor: increase

## C[C@]12CC[C@@H]3c4ccc(O)cc4CC[C@H]3[C@@H]1CC[C@@H]2O [E2]
[2]
  formation of MPK38-Trx complex: results opposite those of treatment with DHT
[3]
  ASK1/TGF-β/p53 signaling: decreased
[4]
  stability of MPK38: decreased
  endogenous ubiquitination of MPK38: increased
[5]
  formation of endogenous MPK38-ZPR9 complex: results opposite those of treatment with DHT
[6]
  formation of endogenous MPK38-Mdm2 complex: increased
[7]
  effects on lipid metabolism and MPK38 kinase activity in liver cells: similar
